Values quoted from earlier work in US20100221327A1, “Nanoparticulate azelnidipine formulations” (Elan Pharma International Limited, priority 2005, published 2010).
“Also recorded” adds a separate entry of the source.

SMILES: CC1=C(C(=O)OC(C)C)C(c2cccc([N+](=O)[O-])c2)C(C(=O)OC2CN(C(c3ccccc3)c3ccccc3)C2)=C(N)N1 (racemic) [Azelnidipine, (±)-3-(1-Diphenylmethylazetidin-3-yl)-5-isopropyl 2-amino-1,4-dihydro-6-methyl-4-(3-nitrophenyl)-3,5-pyridinedicarboxylate]
- Solubility in water: only slightly soluble; also recorded: practically insoluble
